Read-outs that look alike come from different tables or passages of the source.
Columns and labels:
Phakopsora pachyrhizi = assay: Example F: in vivo preventive test (soybeans), DMSO/acetone/Tween 80; conditions: 288 h, 500 ppm of tested compound, preventive spray, soybean, evaluated 12 days after inoculation, read-out: efficacy
Procedure: Solvent: 5% by volume of dimethyl sulfoxide • 10% by volume of acetone
Emulsifier: 1 μL of Tween® 80 per mg of active ingredient
The tested compounds were made soluble and homogenized in a mixture of dimethyl sulfoxide/acetone/Tween® 80 and then diluted in water to the desired concentration.
The young plants of wheat were treated by spraying the tested compound prepared as described above. Control plants were treated only with an aqueous solution of acetone/dimethyl sulfoxide/Tween® 80.
After 24 hours, the plants were contaminated by spraying the leaves with an aqueous suspension of Phakospora pachyrhizi spores. The contaminated soybean plants were incubated for 24 hours at 24° C. and at 100% relative humidity and then for 11 days at 24° C. and at 70-80% relative humidity.
The test was evaluated 12 days after the inoculation. 0% means an efficacy which corresponds to that of the control plants while an efficacy of 100% means that no disease was observed.

Puccinia recondita = assay: Example D: in vivo preventive test (brown rust on wheat); conditions: 264 h, 500 ppm of tested compound, preventive spray, evaluated 11 days after inoculation, read-out: efficacy
Procedure: Solvent: 5% by volume of dimethyl sulfoxide • 10% by volume of acetone Emulsifier: 1 μL of Tween® 80 per mg of active ingredient The tested compounds were made soluble and homogenized in a mixture of dimethyl sulfoxide/acetone/Tween® 80 and then diluted in water to the desired concentration. The young plants of wheat were treated by spraying the tested compound prepared as described above. Control plants were treated only with an aqueous solution of acetone/dimethyl sulfoxide/Tween® 80. After 24 hours, the plants were contaminated by spraying the leaves with an aqueous suspension of Puccinia recondita spores. The contaminated wheat plants were incubated for 24 hours at 20° C. and at 100% relative humidity and then for 10 days at 20° C. and at 70-80% relative humidity. The test was evaluated 11 days after the inoculation. 0% means an efficacy which corresponds to that of the control plants while an efficacy of 100% means that no disease was observed.

[1] = Log P by HPLC on reversed phase columns, method [a] (EEC directive 79/831 Annex V.A8); format: physicochemical; conditions: reversed phase HPLC column
How it was run: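 Reversed-phase HPLC with LC-UV detection per EEC directive 79/831 Annex V.A8, acidic eluent of 0.1% formic acid in water and acetonitrile, linear gradient 10% to 95% acetonitrile. Log P derived from retention times, calibrated against straight-chain alkan-2-ones (C3–C16) by linear interpolation.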

Alternaria brassicae = assay: Example E: in vivo preventive test (cabbage); conditions: 144 h, 500 ppm of tested compound, preventive spray, evaluated 6 days after inoculation, read-out: efficacy
Procedure: Solvent: 5% by volume of dimethyl sulfoxide • 10% by volume of acetone Emulsifier: 1 μL of Tween® 80 per mg of active ingredient The tested compounds were made soluble and homogenized in a mixture of Dimethyl sulfoxide/Acetone/Tween® 80 and then diluted in water to the desired concentration. The young plants of cabbage were treated by spraying the tested compound prepared as described above. Control plants were treated only with an aqueous solution of Acetone/Dimethyl sulfoxide/Tween® 80. After 24 hours, the plants were contaminated by spraying the leaves with an aqueous suspension of Alternaria brassicae spores. The contaminated cabbage plants were incubated for 6 days at 20° C. and at 100% relative humidity. The test was evaluated 6 days after the inoculation. 0% means an efficacy which corresponds to that of the control plants while an efficacy of 100% means that no disease was observed.

[2] = tested on: Colletotrichum lindemuthianum; assay: Example B: in vitro cell test, spore germination and mycelium growth in liquid culture; format: cell-based; conditions: 144 h, 20 ppm of tested compound, 6 days incubation, read-out: efficacy (inhibition of fungal growth)
Procedure: • Solvent: dimethyl sulfoxide Culture medium: 14.6 g anhydrous D-glucose (VWR), • 7.1 g mycological peptone (Oxoid), • 1.4 g granulated yeast extract (Merck), QSP 1 liter Inoculum: spore suspension The tested compounds were solubilized in dimethyl sulfoxide and the solution used to prepare the required range of concentrations. The final concentration of dimethyl sulfoxide used in the assay was ≤1%. A spore suspension of Colletotrichum lindemuthianum was prepared and diluted to the desired spore density. The compounds were evaluated for their ability to inhibit spore germination and mycelium growth in liquid culture assay. The compounds were added in the desired concentration to the culture medium with spores. After 6 days incubation, fungi-toxicity of compounds was determined by spectrometric measurement of mycelium growth. Inhibition of fungal growth was determined by comparing the absorbance values in wells containing the tested compounds with the absorbance in control wells without tested compounds.

[3] = log P determined according to method [a] (HPLC on reversed phase columns), read-out: logP
[4] = method [a], HPLC on reversed phase columns, read-out: logP

SMILES	pest or weed control at 500 µg/mL (Phakopsora pachyrhizi)	pest or weed control at 500 µg/mL (Puccinia recondita)	chromatographic logP [1, 3]	pest or weed control at 500 µg/mL (Alternaria brassicae)	inhibition of growth at 20 µg/mL [2]	chromatographic logP [1, 4]	chromatographic logP ([1]; Method A: LC-UV, acidic range, 0.1% formic acid in water and acetonitrile, read-out: Log P)
COc1ccccc1C1(Nc2ncc(-c3nnc(C(F)F)o3)cn2)CC1 [I.155, 5-[5-(difluoromethyl)-1,3,4-oxadiazol-2-yl]-N-[1-(2-methoxyphenyl)cyclopropyl]pyrimidin-2-amine]	90 to 100%	80 to 89%	3.06				
FC(F)c1nnc(-c2cnc(NC3(c4cccc(Cl)c4)CCC3)nc2)o1 [I.175, N-[1-(3-chlorophenyl)cyclobutyl]-5-[5-(difluoromethyl)-1,3,4-oxadiazol-2-yl]pyrimidin-2-amine]		90 to 100%		70 to 79%	80 to 89%	3.67	
CN(C(=O)c1ccc(-c2nnc(C(F)(F)F)o2)cc1)c1ccccc1 [I.026, N-methyl-N-phenyl-4-[5-(trifluoromethyl)-1,3,4-oxadiazol-2-yl]benzamide]		80 to 89%					
COc1cccc(C2(Nc3ncc(-c4nnc(C(F)F)o4)cn3)CC2)c1 [I.156, 5-[5-(difluoromethyl)-1,3,4-oxadiazol-2-yl]-N-[1-(3-methoxyphenyl)cyclopropyl]pyrimidin-2-amine]	90 to 100%	90 to 100%	2.62	90 to 100%			
CC(C)(Nc1ncc(-c2nnc(C(F)F)o2)cn1)c1ccc(F)cc1 [I.150, 5-[5-(difluoromethyl)-1,3,4-oxadiazol-2-yl]-N-[2-(4-fluorophenyl)propan-2-yl]pyrimidin-2-amine]	90 to 100%	90 to 100%		70 to 79%	80 to 89%		3.26
Fc1cccc(C2(Nc3ncc(-c4nnc(C(F)F)o4)cn3)CC2)c1 [I.145, 5-[5-(difluoromethyl)-1,3,4-oxadiazol-2-yl]-N-[1-(3-fluorophenyl)cyclopropyl]pyrimidin-2-amine]	90 to 100%	90 to 100%	2.72		80 to 89%		
Cc1ccccc1C1(Nc2ncc(-c3nnc(C(F)F)o3)cn2)CC1 [I.132, 5-[5-(difluoromethyl)-1,3,4-oxadiazol-2-yl]-N-[1-(2-methylphenyl)cyclopropyl]pyrimidin-2-amine]	90 to 100%	80 to 89%	3.23		70 to 79%		
Fc1ccccc1C1(Nc2ncc(-c3nnc(C(F)(F)F)o3)cn2)CC1 [I.165, N-[1-(2-fluorophenyl)cyclopropyl]-5-[5-(trifluoromethyl)-1,3,4-oxadiazol-2-yl]pyrimidin-2-amine]	90 to 100%	90 to 100%	3.47		80 to 89%		
COC(=O)c1ccc(C2(Nc3ncc(-c4nnc(C(F)F)o4)cn3)CC2)cc1 [I.180, methyl 4-[1-({5-[5-(difluoromethyl)-1,3,4-oxadiazol-2-yl]pyrimidin-2-yl}amino)cyclopropyl]benzoate]		70 to 79%				2.51	
CN(Nc1ncc(-c2nnc(C(F)F)o2)cn1)c1ccccc1 [I.108, 5-[5-(difluoromethyl)-1,3,4-oxadiazol-2-yl]-2-(2-methyl-2-phenylhydrazino)pyrimidine]		70 to 79%	2.23				
C#CC(Nc1ncc(-c2nnc(C(F)F)o2)cn1)c1ccccc1 (racemic) [I.118, 5-[5-(difluoromethyl)-1,3,4-oxadiazol-2-yl]-N-[(1RS)-1-phenylprop-2-yn-1-yl]pyrimidin-2-amine]	90 to 100%	80 to 89%	2.86		90 to 100%		
FC(F)c1nnc(-c2cnc(OC3(c4ccccc4)CC3)nc2)o1 [I.120, 5-[5-(difluoromethyl)-1,3,4-oxadiazol-2-yl]-2-[(1-phenylcyclopropyl)oxy]pyrimidine]	90 to 100%	70 to 79%	2.95		70 to 79%		
FC(F)c1nnc(-c2cnc(NC3(c4ccccn4)CC3)nc2)o1 [I.121, 5-[5-(difluoromethyl)-1,3,4-oxadiazol-2-yl]-N-[1-(pyridin-2-yl)cyclopropyl]pyrimidin-2-amine]	90 to 100%	70 to 79%	0.93				
FC(F)c1nnc(-c2cnc(NC3(c4ccccn4)CCC3)nc2)o1 [I.137, 5-[5-(difluoromethyl)-1,3,4-oxadiazol-2-yl]-N-[1-(pyridin-2-yl)cyclobutyl]pyrimidin-2-amine]	90 to 100%	90 to 100%	1.2	90 to 100%			
FC(F)c1nnc(-c2cnc(NC(c3ccccc3)C3CC3)nc2)o1 (racemic) [I.136, N—[(RS)-cyclopropyl(phenyl)methyl]-5-[5-(difluoromethyl)-1,3,4-oxadiazol-2-yl]pyrimidin-2-amine]	90 to 100%	80 to 89%	3.14		80 to 89%		
Fc1ccccc1Nc1ncc(-c2nnc(C(F)F)o2)cn1 [I.093, 5-[5-(difluoromethyl)-1,3,4-oxadiazol-2-yl]-N-(2-fluorophenyl)pyrimidin-2-amine]	90 to 100%	90 to 100%					
CCC(Nc1ncc(-c2nnc(C(F)F)o2)cn1)c1ccccc1 (racemic) [I.122, 5-[5-(difluoromethyl)-1,3,4-oxadiazol-2-yl]-N-[(1RS)-1-phenylpropyl]pyrimidin-2-amine]	90 to 100%	90 to 100%	3.16		90 to 100%		
CC(Oc1ncc(-c2nnc(C(F)F)o2)cn1)c1ccc(F)cc1 (racemic) [I.127, 5-[5-(difluoromethyl)-1,3,4-oxadiazol-2-yl]-2-{[(1RS)-1-(4-fluorophenyl)ethyl]oxy}pyrimidine]	90 to 100%	70 to 79%	3.13				
CC(Nc1ncc(-c2nnc(C(F)F)o2)cn1)c1ccc(F)cc1 (racemic) [I.125, 5-[5-(difluoromethyl)-1,3,4-oxadiazol-2-yl]-N-[(1RS)-1-(4-fluorophenyl)ethyl]pyrimidin-2-amine]	90 to 100%	90 to 100%	2.89		80 to 89%		
Cc1ccc(C2(Nc3ncc(-c4nnc(C(F)F)o4)cn3)CC2)cc1 [I.133, 5-[5-(difluoromethyl)-1,3,4-oxadiazol-2-yl]-N-[1-(4-methylphenyl)cyclopropyl]pyrimidin-2-amine]	90 to 100%	90 to 100%	3	70 to 79%			

— patent US20220144815A1, “1,3,4-OXADIAZOLES AND THEIR DERIVATIVES AS NEW ANTIFUNGAL AGENTS” (Bayer Aktiengesellschaft, priority 2018, published 2022)
